Drawing on patent US4831046A, “Tetrazole derivatives of 1,3-dioxane and thromboxane A2 antigonizing use thereof” (Imperial Chemical Industries PLC, priority 1985, dated 1989), this text covers pA2, Kb and dose ratio for one molecule.

Structures are written as SMILES.

One assay relates to rabbit aortal strip. Put plainly: rabbit aortal strip model (agonist TXA2 or U46619). The format is cell-based. The settings on record: test (a), TXA2 antagonism. As to the method:
(§1) As stated earlier, the compounds of formula I are antagonists of one or more of the actions of TXA2, for example certain of its actions on blood platelets, the vasculature and/or the lung.
(a) The rabbit aortal strip model devised by Piper and Vane (Nature, 1969, 223, 29-35) using as agonist a freshly prepared sample of TXA2, generated by addition of arachidonic acid (25 μg) to citrated, platelet rich rabbit plasma (250 μl) and allowing the mixture to aggregate fully over 90 seconds before use; alternatively the TXA2 mimetic agent known as U46619 (described by R L Jones et alia, in "Chemistry, Biochemistry and Pharmacological Activity of Prostanoids" edited by S M Roberts and F Scheinmann, at page 211, Pergamon Press, 1979) may be used as the agonist;

Assay [1] has as its target T1, human, citrated platelet-rich plasma (Homo sapiens, UniProt P21731).
T1 construct: aggregating human, citrated platelet-rich plasma by addition of the TXA2 mimetic agent U46619; endogenous in cells; host or cells: human platelets in citrated platelet-rich plasma
T1 sequence (P21731 1-343): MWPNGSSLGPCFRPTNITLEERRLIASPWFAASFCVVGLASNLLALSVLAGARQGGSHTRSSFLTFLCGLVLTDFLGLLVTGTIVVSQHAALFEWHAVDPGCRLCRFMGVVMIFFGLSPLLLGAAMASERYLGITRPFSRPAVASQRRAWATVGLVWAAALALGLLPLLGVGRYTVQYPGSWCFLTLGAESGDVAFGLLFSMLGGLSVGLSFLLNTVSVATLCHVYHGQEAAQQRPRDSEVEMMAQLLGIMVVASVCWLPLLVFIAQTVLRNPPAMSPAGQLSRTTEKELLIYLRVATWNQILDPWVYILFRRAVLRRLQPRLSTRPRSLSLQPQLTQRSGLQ
The assay can be described thus: blood platelet aggregation test (U46619, based on Born). In kind it is cell-based. The settings on record: test (b), averaged over several concentrations.
Text: as §1
(b) a blood platelet aggregation test based on that described by Born (Nature, 1962, 194, 927-929) and involving:
(i) aggregating human, citrated platelet-rich plasma by addition of the TXA2 mimetic agent U46619 so that a dose-response curve is generated;
(ii) generating a dose-response curve for U46619 stimulated platelet aggregation in the presence of increasing amounts of test compound (generally in the range, 10^-5 M to 10^-10 M); and
(iii) calculating a KB value indicating potency of TXA2 antagonism for the test compound averaged over several concentrations, from the calculated 50% response value for U46619 aggregation in the presence and absence of test compound; and […]

In assay [2] the test system is U46619 induced bronchoconstriction. The assay can be described thus: bronchoconstriction test, U46619 induced, Konzett-Rossler anaesthetised guinea-pig model. In kind it is in vivo. To be noted: test (c), 50 μg/kg p.o., 50% response.
Text: as §1
(c) a bronchoconstriction test involving measuring the inhibition by a test compound of the bronchoconstriction induced in the Konzett-Rossler, anaesthetised guinea-pig model (as modified by Collier and James, Brit. J. Pharmacol., 1967, 30, 283-307) by intravenous administration of the TXA2 mimetic agent, U46619 and involving:
(i) obtaining a cumulative dose-response curve to U46619 induced bronchoconstriction by intravenous administration of constant volumes of increasing concentrations of U46619 (0.2-4 μg/kg) in physiological saline solution and expressing bronchoconstriction as the maximum of that theoretically obtainable with no air flow to the test animal;
(ii) generating a cumulative dose-response curve to U46619 induced bronchoconstriction at 30 minute intervals for 3 hours after oral dosing of test compound; and
(iii) calculating a dose-ratio for the test compound (that is the ratio of concentration of U46619 required to cause 50% bronchoconstriction in the presence and absence of test compound) indicating the potency of TXA2 antagonism.

In the case of `CC(C)[C@@H]1OC[C@H](C/C=C\CCc2nn[nH]n2)[C@H](c2ccccc2O)O1` (relative stereo) [Example 5, 5-[3(Z)-5-([2,4,5-cis]-4-o-hydroxyphenyl-2-isopropyl-1,3-dioxan-5-yl)pentenyl]-1(H)-tetrazole], in the assay with rabbit aortal strip, the pA2 came to 7.32. Besides, the Kb in assay [1] turned out to be 45.6 nM. Besides, the dose ratio in assay [2] is reported as 25.

As a reminder, the pA2 is a measure of antagonist potency on a negative log scale. Lower therefore signals a weaker antagonist.
